Here are results for 14 molecules from patent US20160016951A1 (Merck Patent GmbH, priority 2014, published 2016).

In the test the target is T1, CDK8 (CDK8/CycC) (Homo sapiens, UniProt P49336).
T1 construct: purchased Invitrogen PV4402
T1 sequence (P49336 whole entry): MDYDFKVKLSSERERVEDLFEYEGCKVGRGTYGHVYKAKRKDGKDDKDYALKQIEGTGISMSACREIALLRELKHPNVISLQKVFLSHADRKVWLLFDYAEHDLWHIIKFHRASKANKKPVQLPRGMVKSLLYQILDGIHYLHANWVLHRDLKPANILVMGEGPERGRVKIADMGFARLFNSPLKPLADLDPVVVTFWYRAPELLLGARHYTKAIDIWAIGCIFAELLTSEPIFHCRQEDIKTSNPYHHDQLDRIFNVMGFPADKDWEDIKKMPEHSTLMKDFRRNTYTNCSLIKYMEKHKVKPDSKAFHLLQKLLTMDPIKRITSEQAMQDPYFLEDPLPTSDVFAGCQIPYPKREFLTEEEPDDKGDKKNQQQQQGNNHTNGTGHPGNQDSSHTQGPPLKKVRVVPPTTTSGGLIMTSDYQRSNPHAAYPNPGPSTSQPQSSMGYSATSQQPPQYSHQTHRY
T1 sequence (P24863 whole entry partner): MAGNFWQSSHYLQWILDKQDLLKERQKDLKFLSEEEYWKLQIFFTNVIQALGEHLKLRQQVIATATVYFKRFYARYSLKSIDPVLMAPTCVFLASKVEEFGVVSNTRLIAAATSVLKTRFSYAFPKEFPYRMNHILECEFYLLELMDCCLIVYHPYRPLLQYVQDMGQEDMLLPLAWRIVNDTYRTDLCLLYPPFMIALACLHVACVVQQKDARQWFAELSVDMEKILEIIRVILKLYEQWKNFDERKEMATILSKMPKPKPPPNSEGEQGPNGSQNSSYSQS
Description: FRET based Lanthascreen binding competition assay. Particulars: 5 nM CDK8/CycC, 10 nM Alexa647-Tracer, 1% DMSO, 60 min at RT; read-out: IC50 CDK8 binding. The gist of the method: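 CDK8 co-expressed with CycC and labelled through biotinylated anti-His antibody and streptavidin-Eu was preincubated with compound for 20 min at RT. An Alexa647 ATP-competitive probe was then added for 60 min at RT in the dark. Probe displacement was read as loss of TR-FRET (excitation 340 nm, emission 650 nm).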
(TR-FRET usually uses a lanthanide donor and a delayed reading to cut background.)
By IC50 is commonly meant the midpoint of a concentration-inhibition curve. Consider `CN1C(=O)CCc2cc(-c3cncc4ccc(C(=O)N5CC(F)(F)C5)cc34)ccc21` [Compound 158, 6-[6-(3,3-Difluoro-azetidine-1-carbonyl)-isoquinolin-4-yl]-1-methyl-3,4-dihydro-1H-quinolin-2-one], for which the IC50 is 10 to 100 nM.

With `COC1CN(C(=O)c2ccc3cncc(-c4ccc5c(c4)CC(=O)N5C)c3c2)C1` [Compound 159, 5-[6-(3-Methoxy-azetidine-1-carbonyl)-isoquinolin-4-yl]-1-methyl-1,3-dihydro-indol-2-one], the IC50 was in the range of 10 to 100 nM.

As for `COC1CN(C(=O)c2ccc3c(N)ncc(-c4ccc(-c5ccn(C)n5)cc4)c3n2)C1` [Compound 160, (5-amino-8-(4-(1-methyl-1H-pyrazol-3-yl)phenyl)-1,6-naphthyridin-2-yl)(3-methoxyazetidin-1-yl)methanone], the IC50 lay within 101 to 500 nM.

Take `COC1CN(C(=O)c2ccc3c(N)ncc(-c4ccc(-c5cnn(C(C)C)c5)cc4)c3n2)C1` [Compound 161, (5-amino-8-(4-(1-isopropyl-1H-pyrazol-4-yl)phenyl)-1,6-naphthyridin-2-yl)(3-methoxyazetidin-1-yl)methanone]: the IC50 was in the range of 10 to 100 nM.

In the case of `Cn1cc(-c2ccc(-c3cncc4ccc(NS(=O)(=O)C5CC5)cc34)cc2)cn1` [Compound 162, Cyclopropanesulfonic acid {4-[4-(1-methyl-1H-pyrazol-4-yl)-phenyl]-isoquinolin-6-yl}-amide], the 50% inhibitory concentration (IC50) was less than 10 nM.

As for `CN1C(=O)Cc2ccc(-c3cncc4ccc(C(=O)N5CC(F)(F)C5)cc34)cc21` [Compound 163, 6-[6-(3,3-Difluoro-azetidine-1-carbonyl)-isoquinolin-4-yl]-1-methyl-1,3-dihydro-indol-2-one], the IC50 fell in the range of 10 to 100 nM.

Regarding `CN1C(=O)Cc2ccc(-c3cnc(N)c4ccc(C(=O)N5CC(F)(F)C5)cc34)cc21` [Compound 164, 6-[1-Amino-6-(3,3-difluoro-azetidine-1-carbonyl)-isoquinolin-4-yl]-1-methyl-1,3-dihydro-indol-2-one], the IC50 fell in the range of 10 to 100 nM.

As to `COC1CN(C(=O)c2ccc3cncc(-c4ccc5c(c4)N(C)C(=O)C5)c3c2)C1` [Compound 165, 6-[6-(3-Methoxy-azetidine-1-carbonyl)-isoquinolin-4-yl]-1-methyl-1,3-dihydro-indol-2-one], the IC50 was less than 10 nM.

In the case of `COCCn1cc(-c2ccc(-c3cncc4ccc(NS(C)(=O)=O)cc34)cc2)cn1` [Compound 166, N-(4-(4-(1-(2-methoxyethyl)-1H-pyrazol-4-yl)phenyl)isoquinolin-6-yl)methanesulfonamide], the IC50 is less than 10 nM.

Turning to `COCCN(c1ccc2cncc(-c3ccc(-c4cnn(C)c4)cc3)c2c1)S(C)(=O)=O` [Compound 167, N-(2-methoxyethyl)-N-(4-(4-(1-methyl-1H-pyrazol-4-yl)phenyl)isoquinolin-6-yl)methanesulfonamide], the IC50 lay in the range of 101 to 500 nM.

As for `Cn1cc(-c2ccc(-c3cncc4ccc(NS(=O)(=O)C5(C)CC5)cc34)cc2)cn1` [Compound 168, 1-Methyl-cyclopropanesulfonic acid {4-[4-(1-methyl-1H-pyrazol-4-yl)-phenyl]-isoquinolin-6-yl}-amide], the IC50 was less than 10 nM.

On to `Cn1cc(-c2ccc(-c3cncc4ccc(NS(=O)(=O)N5CCC5)cc34)cc2)cn1` [Compound 169, Azetidine-1-sulfonic acid {4-[4-(1-methyl-1H-pyrazol-4-yl)-phenyl]-isoquinolin-6-yl}-amide], for which the IC50 was less than 10 nM.

Regarding `CN1C(=O)Cc2cc(-c3cncc4ccc(C(=O)N5CC(F)(F)C5)cc34)ccc21` [Compound 170, 5-[6-(3,3-Difluoro-azetidine-1-carbonyl)-isoquinolin-4-yl]-1-methyl-1,3-dihydro-indol-2-one], the IC50 lay within 10 to 100 nM.

`CN1C(=O)Cc2cc(-c3cnc(N)c4ccc(C(=O)N5CC(F)(F)C5)cc34)ccc21` [Compound 171, 5-[1-Amino-6-(3,3-difluoro-azetidine-1-carbonyl)-isoquinolin-4-yl]-1-methyl-1,3-dihydro-indol-2-one]: the IC50 was 10 to 100 nM.
